Data reported in a melting point compilation (Tetko et al.; mined from patent text by program, amines drawn as free bases though some values may be those of a salt).

| Structure (SMILES) | melting point |
| --- | --- |
| Nc1cc(Cl)nc(OCc2cccc3ccccc23)n1 | 160 to 161 °C |
| NC(CCCCNC(=O)OCc1ccccc1)C(=O)Nc1cccc2ccccc12 (stereo not given) | 138 to 140 °C |
| COc1ccccc1NCN1C(=O)CN(C)C1=O | 93 to 96.5 °C |
| COc1ccc(C(=O)Nc2ccccc2)cc1NCc1ccc(C#N)cc1 | 130 to 133 °C |
| CCCCCCCCCCC1(CCCCCCCCCC)c2cc(Br)ccc2-c2ccc(Br)cc21 | 38.1 to 38.4 °C |
| COc1cc(Cc2nc(NC(C)(C)C)c3c(C)c(C#N)sc3n2)cc(OC)c1OC | 146 to 148 °C |
| CCc1ncc(CCCOc2c(C)cc(-c3noc(C(F)(F)F)n3)cc2C)s1 | 57 to 59 °C |
| Cc1cc(C)c(CP(=O)(Cc2c(C)cc(C)cc2C)Cc2c(C)cc(C)cc2C)c(C)c1 | 232 to 233 °C |
| CC(C)C(=O)Nc1cccc(-c2ccnc3c(C(=O)c4cccs4)cnn23)c1 | 180 to 181 °C |
| CN(CCCCC(=O)O)c1ccc(Br)cc1C=O | 72 to 73 °C |
| CCN(CC)S(=O)(=O)c1cc(C(=O)CCl)ccc1Cl | 63 to 65 °C |
| O=C(c1ccc(F)cc1)N1CCC[C@H](c2nc(-c3ccccc3)no2)C1 | 78 to 79 °C |
| CN1C(=O)C(F)N=C(c2ccccc2)c2cc(Cl)ccc21 (stereo not given) | 145 to 147 °C |
| COc1ccc(-c2nccc(C(N)=O)c2N)cc1 | 179 to 181 °C |
| Cc1nc2c(N)nc3ccccc3c2n1CCCCNC(=O)Nc1ccccc1 | 172 °C |
| CCOc1nn(Cc2ccc(OCc3cccc(-c4ccccc4)n3)cc2)cc1CCC(=O)O | 95 to 96 °C |
| COc1ccc(OC)c2c1CCC(O)C2 (stereo not given) | 128 to 129 °C |
| CCOC(=O)C(C=O)Cc1ccc(C)nc1 (stereo not given) | 142 to 144 °C |
| OCC1COC(c2c(F)cccc2F)=N1 (stereo not given) | 82 °C |
| Cc1cc(CC(=O)N[C@H]2CC[C@H](CCN3CCN(c4nccc5c4CCO5)CC3)CC2)on1 | 172 °C |
| CCCCc1nn(C(CC)c2ccccc2)c(=O)n1Cc1ccc(-c2ccccc2-c2nnn[nH]2)cc1 (stereo not given) | 72 to 75 °C |
| O=C1C(=O)N(Cc2ccc(O)cc2)c2ccc(S(=O)(=O)N3CCC[C@H]3COc3ccccc3)cc21 | 170 to 172 °C |
| c1ccc2c(c1)nc(-c1ccc3c(c1)OCO3)n2CC1CCCCC1 | 100 to 102 °C |
| O=C(O)C1=C(c2ccccc2)C(c2ccccc2)OC1=O (stereo not given) | 116 to 117 °C |
| O=C(c1ccccc1O)N1CC2CCC(C1)O2 | 155 to 157 °C |

| Structure (SMILES) | melting point |
| --- | --- |
| O=C(O)C1=CCCN(Cc2ccc(Cl)c(Cl)c2)C1 | 240 to 245 °C |
| N#Cc1c(Br)c(C(F)(F)F)n(CBr)c1-c1ccc(Cl)cc1 | 131 to 132 °C |
| CCOC(=O)c1ncc2[nH]c3ccc(CC)cc3c2c1C | 158 to 163 °C |
| CCCc1nc(C)c2c(Sc3ccc(NC(C)=O)cc3)nc(-c3ccccc3OCC)nn12 | 226 to 228 °C |
| CCC(=O)C(CCCOc1ccc(OCCCc2c(CC)n[nH]c2CC)cc1)C(=O)CC | 135 to 136 °C |
| CCOC(=O)CCCCCSc1nnc(S)s1 | 79 to 80 °C |
| CC(Cc1c[nH]c2ccccc12)(NC(=O)OC1C2CC3CC(C2)CC1C3)C(=O)NCC(NC(=O)C1CC1C(=O)O)c1ccccc1 (stereo not given) | 138 to 142 °C |
| CC1(C(=O)NCCc2ccc(CCC(=O)O)cc2)C=CN=N1 (stereo not given) | 202 to 205 °C |
| O=C1CCC2=C1C(c1ccc(Br)c(Br)c1)C1=C(CCS1)N2 (stereo not given) | > 260 °C |
| Cc1ccc(Cl)cc1-c1noc(CCC#Cc2ccccn2)n1 | 66 to 68 °C |
| FC(F)(F)c1ccc(-c2ccc3nncn3n2)cc1 | 160 to 161 °C |
| COC(=O)c1ccc2c(ccn2Cc2cccc(NC(=O)OC3CCCC3)c2)c1 | 131 to 133 °C |
| O=C1CCSc2c1ccc(Cl)c2Cl | 93 to 102 °C |
| CC(=O)SC[C@H](NC(=O)OC(C)(C)C)C(=O)NC(CS)C(C)=O (stereo not given in full) | 111 to 113 °C |
| CCc1cccc2c3c([nH]c12)C(CC)(CC(=O)O)CCC3c1ccccc1 (stereo not given) | 140 to 142 °C |
| COC(=O)C1CN(C(C)=O)c2ccccc2CN1S(=O)(=O)c1ccc(OC)cc1 (stereo not given) | 150 to 155 °C |
| O=c1c(Cc2ccccc2)cn2c3ccc(Cl)cc3c3cc(Cl)cc1c32 | 206 to 209 °C |
| CCCC(=O)Nc1n[nH]c2cc(-c3ccc(O)cc3)c(-c3ccccc3)cc12 | 220 °C |
| CN(C/C=C/C#CC(C)(C)C)Cc1cccc(N(C)Cc2ccccc2)c1 | 62 to 63 °C |
| Cc1c(CC(=O)OCCCO)cc(-c2ccc(S(C)(=O)=O)cc2)n1-c1ccccc1 | 108 to 110 °C |
| CC(=O)OCNC(=O)c1cc(Cl)nc(Cl)c1 | 94 to 95 °C |
| CC(=O)Nc1nc2ccc(O)cc2n1S(=O)(=O)N(C)C | 175 to 176 °C |
| Oc1ccc(-c2ccc(-c3ccc(F)cc3)nc2-c2ccc(OCCN3CCCCC3)cc2)cc1 | 194 to 195 °C |
| CCCc1c(OCCCOc2ccc3c(=O)cc(C(=O)OC)oc3c2CCC)ccc(C(C)=O)c1O | 113 to 115 °C |
| C=CC(=O)Oc1ccc(N2C(=O)C(=C(C)C)/C(=C(/C)c3cc(C)oc3C)C2=O)cc1 | 157 to 158 °C |

| Structure (SMILES) | melting point |
| --- | --- |
| O=C1CCOc2ccc(Oc3ccccc3)cc21 | 58 to 60 °C |
| CC1(C)C=C(c2ccccn2)c2cc(C(=O)O)ccc2O1 | 238 to 240 °C |
| OC1C(COC2CC2)OC(n2cnc3c(NC4CCCC4)ncnc32)C1O (stereo not given) | 126 to 128 °C |
| Cc1ccc(CC(CNC(=O)C(C)c2ccc(NS(C)(=O)=O)c(Cl)c2)COC(=O)C(C)(C)C)cc1C (stereo not given) | 127 to 129 °C |
| CC(=O)Nc1nc(CC(=O)O)ns1 | 161 to 163 °C |
| CC(C)NCC(O)COc1cccnc1 (stereo not given) | 84 to 87 °C |
| Cn1cc(S(=O)(=O)Cl)c(=O)c2ccc(C(F)(F)F)cc21 | 262 to 265 °C |
| CCc1cc(Nc2ccc(N)cc2)n2nccc2n1 | 153 to 154 °C |
| Nc1nc(NCc2cccc(F)c2)nc2nc(-c3ccco3)nn12 | 216 to 218 °C |
| COC(C)C#Cc1ncn2c1CN(C)C(=O)c1c(Cl)cccc1-2 (stereo not given) | 139 to 141 °C |
| FC(F)(F)c1ccc(CCl)cc1 | 224 to 228 °C |
| Cc1cccc(NC(=O)NCC(=O)N(CC(=O)N2CCc3ccccc32)c2ccccc2)c1 | 190 °C |
| CCOC(=O)c1oc2cccc(COC)c2c1C | 45 to 47 °C |
| C=CCc1cc2c(c(CC=C)c1O)CCC(=O)N2c1ccc(OC)cc1 | 154 °C |
| O=C(NC1CC1)c1cc(Nc2nc(Cl)nc3ccoc23)[nH]n1 | 247 °C |
| CO[C@H]1CC[C@H]([C@H]2CC[C@H](CCC=O)CC2)CC1 | 36 °C |
| Cc1c(NCCN2C(=O)c3ccccc3C2=O)c(=O)n(C)c(=O)n1C | 178 to 180 °C |
| O=C(O)c1cn(CCc2ccc(O)cc2)c2cc(C3CC3)nn2c1=O | 265 to 270 °C |
| O=c1[nH]c2c(c(=O)[nH]1)N=CCN2CCCCN1CCC(OC(c2ccccc2)c2ccccc2)CC1 | 157 to 159 °C |
| CCCCC(CC(=O)Nc1cc(C(N)=O)ccc1C(C)(C)C)c1cc(Cl)c(OC)cc1OC (stereo not given) | 212 to 214 °C |
| O=C(COC1CCCCO1)c1ccccn1 (stereo not given) | 63 to 65 °C |
| N#CCOc1ccc2cc(-c3cnc(-c4cn(Cc5ccccc5)c5ccccc45)o3)ccc2c1 | 205 to 208 °C |
| O=[N+]([O-])c1ccc(-c2cc(-c3ccc(Cl)cc3)[nH]c2C(F)(F)F)s1 | 65 to 66 °C |
| COC(=O)c1ccc(-c2c[nH]c(-c3ccc4c(c3)C(C)(C)CCC4(C)C)c2)cc1 | 174 to 175 °C |
| Cc1cccc(-c2n[nH]cc2-c2ccc(F)c(-c3c[nH]cn3)c2)n1 | 229 to 233 °C |

| Structure (SMILES) | melting point |
| --- | --- |
| CC(=O)NCC1CC1c1cccc2nc(C)cn12 (stereo not given) | 170 to 171 °C |
| Cc1ccccc1P(=O)(O)c1ccccc1C | 174 to 175 °C |
| CC(C)=NOCC(C)OC(=O)COc1ccc(Cl)c2cccnc12 (stereo not given) | 102 °C |
| CCS(=O)(=O)c1ccc2c(c1)nc(CC(C)(C)C)n2CCOC(F)(F)F | 133 °C |
| CCCCc1cnc(-c2cnc(-c3ccc(F)cc3)nc2)nc1 | 196 °C |
| CC(=O)c1cc2c(c(C(=O)O)c1)NCCC2 | 229 °C |
| C=CCNc1cc(Oc2cc(Cl)c(Br)cc2Cl)c(Cl)cc1[N+](=O)[O-] | 102 °C |
| COC(=O)c1ccc(OC(=O)CCC(=O)Oc2ccc(C(=O)OC)cc2)cc1 | 190 °C |
| CC(O)CNS(=O)(=O)c1ccc(Nc2nc(OCC3CCCCC3)c3nc[nH]c3n2)cc1 (stereo not given) | 236 to 238 °C |
| O=C(C[C@H](NC(=O)C(F)(F)F)C(=O)O)c1ccc2oc3ccccc3c2c1 | 140 to 144 °C |
| CCC(=O)c1cc(C)nc2c1c(C)nn2-c1c(C)cc(C)cc1C | 117 to 118 °C |
| CCCCCCCNC(=O)Nc1ccc(NC(C)=O)cc1C(=O)NC1CCN(C(c2ccccc2)c2ccccc2)CC1 | 113 to 115 °C |
| CCc1nn2c(-c3ccc(Cl)cc3Cl)cnnc2c1C(CC)CC | 117 to 118 °C |
| Cc1cccc(-c2[nH]c(C(C)C)nc2-c2ccc(F)c(-c3ccc(OCCN4CCCC4=O)cc3)c2)n1 | 95 °C |
| Cc1cccc(Nc2n[nH]c(N=CN(C)C)c2C#N)c1 | 260 to 261 °C |
| COc1ccc(C(=O)c2ccc(Oc3ccccc3)cc2)cc1 | 118 to 119 °C |
| CS(C)=NS(=O)(=O)c1ccc(N2CC(CO)OC2=O)cc1 (stereo not given) | 162 to 164 °C |
| CCCc1c(OCCCCCCc2ccc(C(=O)c3cccc(C(=O)O)c3)cc2CCC(=O)O)ccc2c1OCCC2=O | 137 to 139 °C |
| O=C(Oc1ccccc1)N1C(=O)[C@H](O)[C@@H]1c1ccccc1 | 125 to 126 °C |
| CCCn1c(=S)[nH]c2ccc(I)cc2c1=O | > 200 °C |
| CC(C)Cn1c(=O)n(C)c(=O)c2c(-c3ccccc3F)n(Cc3csc4ccccc34)nc21 | 55 to 57 °C |
| CCN(CC)C(=O)Oc1nc(-c2ccccc2)cc2ccccc12 | 81 °C |
| O=C(NO)Oc1ccccc1 | 99.5 to 101 °C |
| CC(=C(F)F)c1cn(-c2c(Cl)cc(C(F)(F)F)cc2Cl)nc1C#N | 66 to 68 °C |
| COc1ccc(CN(CCC(=O)O)c2nc(NC(=O)Nc3ccccc3OC)nc(Oc3ccc4ccccc4c3)n2)cc1 | 197 to 205 °C |
